Assay results published in paper PMC8202924, “Emodepside targets SLO-1 channels of Onchocerca ochengi and induces broad anthelmintic effects in a bovine model of onchocerciasis” (PLoS Pathogens, 2021).
Several values for one entry are separate records, joined by “and”; a condition that tells them apart may be missing. Identical values can stand only once. Like-named read-outs stand apart in the source and are kept apart here.

Legend:
[1] = Plasma PK of emodepside in the main trial, LC-MS/MS; format: in vivo, zebu (Ngaoundéré Gudali) cattle (B. t. indicus); conditions: for Model tmax in plasma: two-compartment model; for Tmax: bovine, iv, read-out: Time of observed Cmax in plasma (converted)
Procedure: Bovine samples (EDTA-plasma, skin snips and nodules) were stored at –80°C in Cameroon and shipped according to international transportation guidelines on dry ice to Bayer, Germany. Due to suspected contamination with other pathogens, samples required decontamination. Based on modified WHO guidelines for viral inactivation and reports of virus stability in fluids and solid media issued by the United States Army, decontamination of samples was performed. Samples were thawed slowly in a microbiological safety cabinet and the plasma samples were vortexed gently. Skin snips and nodules were homogenized in a Qiagen TissueLyser II (Qiagen NV, Hilden, the Netherlands) with stainless steel beads. Homogenates were weighed and mixed with 4.5 volumes of a 0.5% collagenase solution (collagenase from Clostridium histolyticum [>125 IU/mg] Merck KGaA, Darmstadt, Germany), then incubated at 37°C with orbital mixing at 140 rpm for 48 h.
Plasma samples, skin and nodule homogenates were precipitated in a 1:10 ratio with acetonitrile using a vortex mixer at 150 rpm for 10 min, then centrifuged for 5 min at 14,000 rpm. The supernatants were pipetted into gas-tight vials and incubated at 80°C for 21 min to achieve a core temperature of 80°C for 10 min, then cooled to 4°C in a water-ice bath. Finally, samples were filtered using a cellulose sterile filter (S&S Spartan 13/30) into standard HPLC vials for liquid chromatography–mass spectrometry analysis. For liquid chromatography on a C18 column, a water/methanol gradient (containing 10 mmol ammonium acetate and 0.1 mL/L formic acid) was used. Quantification of emodepside was performed by tandem mass spectrometry on an API 5500 instrument (AB Sciex, Darmstadt, Germany) using the transition of m/z = 1,120 ([M + H]^+) to its product ion m/z = 343. […]
For the PK mean model, the PK of emodepside was modelled using a closed-form, two-compartment IV model according to Eq 1. csdt=dose*c0*exp−ke*t*1+delta*exp+ke*f*t (1) with ke, f and delta being parameters describing the distribution and elimination phase, and c0 being a proportionality factor for the dose.
The multiple IV dose was modelled as an additive single-dose, two-compartment model according to Eq 2. cmdt=∑i=17t−i*tΔ>0?csdt−i*tΔ:0 (2) with i as index of doses (1 to 7), and tΔ the difference in time between consecutive doses (here 24 h).
Parameters describing distribution and elimination of emodepside were fitted to the observed data of all dose steps and animals together using the optim fit function of R and the ‘L-BFGS-B’ method […] box constraints. From the observed data, the maximal observed concentration and the corresponding timepoint were extracted. The terminal half-life was calculated from the last three datapoints. The corresponding mean values were derived from the compartmental model parameters.

[2] = rat, over four weeks orally in diet; cited from earlier work
Text: Blood glucose has been identified as a simple biomarker for emodepside exposure in humans.

[3] = test system: Onchocerca ochengi adult male worms; assay: Ex vivo visual motility assessment of adult male worms from nodules; format: in vivo; conditions: MRSM, 4 mg/kg every other day for 3 days; day 550; n = 1
Procedure: (§1) Tattooed nodules were removed under local anesthesia (lidocaine-epinephrine) on study days -1, 90, 180–190, 270–290, 360 and 550 in a randomized order as previously described. Nodules were trimmed of excess tissue and up to four nodules per animal were processed separately as follows: (1) stored frozen at –80°C for PK analysis (up to day 14 only); (2) injected in toto with 10% neutral-buffered formalin and stored at 4°C for histopathology (up to day 290 only); or (3) dissected immediately in phosphate-buffered saline to separate adult male and female worms. The anterior end of the female worm (which even in viable specimens is the only motile part of the parasite) was removed from the worm mass and incubated alongside intact male worms for 30 min at 37°C for visual motility assessment on a three-point scale. The remaining portion of the female worm mass was subjectively scored for fecundity on a four-point scale (0, uteri empty or worm structure degraded; 1, low; 2, intermediate; 3, normal) by examining the uterine contents microscopically in situ. This was followed by a fully quantitative embryogram to enumerate oocytes, embryonic stages and intrauterine Mf as described previously.
The second class of PD endpoint considered was worm motility, which was recorded as a three-class categorical variable and quantified here as a fraction of normal worm motility. […]

[4] = test system: Onchocerca ochengi microfilariae; assay: Dermal microfilarial density in naturally infected cattle; format: in vivo; conditions: MRSM, 4 mg/kg every other day for 3 days
Procedure: By group, the geometric mean Mf load per 100 mg skin ranged from 100 to 500 (Table 1); two animals found to be negative for skin Mf were distributed in different groups. Eighteen preselected nodules per animal were marked with tattoo ink, and their positions were recorded on a hardcopy ‘hide map’ and by digital video [57]. All assessments of drug efficacy were conducted by individuals blinded to the treatment groups. The study was conducted unmasked. All study personnel provided a signed declaration to conduct the study according to the specified protocol. Verum or vehicle was administered as described in the dose confirmation study.
Worms from a second unfixed nodule (at the same timepoints listed above) were subjected to a 3-(4,5-dimethylthiazol-2-yl)-2,5-diphenyltetrazolium bromide (MTT) assay for metabolic activity, in which the insoluble formazan product was dissolved in DMSO and quantified colorimetrically at 620 nm in a microplate reader (model LT4500, Labtech, Heathfield, East Sussex, UK). Finally, dermal microfilarial densities were determined by incubation of skin biopsies (in triplicate per animal per timepoint) and normalized to 100 mg skin [59].

[5] = test system: Onchocerca ochengi adult female worms; assay: Ex vivo visual motility assessment of adult female worms from nodules; format: in vivo; conditions: MRSM, 4 mg/kg every other day for 3 days
Procedure: as §1
The second class of PD endpoint considered was worm motility, which was recorded as a three-class categorical variable and quantified here as a fraction of normal worm motility. First, a linear model of decrease in motility per dose group was established with a study-wide mean motility at day –1: motilitydose_group,t=meanmotilityday−1−slopedose_group*t (5)

[6] = EMO1L, 0.15 mg/kg IV single dose, individual animals in order B0696, B0698, B0700, B0722, B0730, B0731, B0762

## CC(C)C[C@H]1C(=O)O[C@H](Cc2ccc(N3CCOCC3)cc2)C(=O)N(C)[C@@H](CC(C)C)C(=O)O[C@H](C)C(=O)N(C)[C@@H](CC(C)C)C(=O)O[C@H](Cc2ccc(N3CCOCC3)cc2)C(=O)N(C)[C@@H](CC(C)C)C(=O)O[C@H](C)C(=O)N1C [emodepside]
[1]; EMO1H, 0.75 mg/kg IV single dose, animals in order B0054, B0405, B0439, B0726, B0728
  Time of observed Cmax in plasma: 5 min
[1]; EMO1H, 0.75 mg/kg IV single dose, individual animals in order B0054, B0405, B0439, B0721, B0726, B0727, B0728
  tlast in plasma: 168 h (2×) and 504 h (4×) and 336 h
[1]; EMO1H, 0.75 mg/kg IV single dose
  Model tmax in plasma: 0.083 h
[1]; [6]
  Time of observed Cmax in plasma: 5 min (6×) and 30 min
  tlast in plasma: 168 h (3×) and 336 h (2×) and 504 h
[1]; EMO1L, 0.15 mg/kg IV single dose
  Model tmax in plasma: 0.083 h
[1]; EMO7H, 0.75 mg/kg IV daily for 7 days, individual animals in order B0404, B0434, B0694, B0695, B0734, B0750, B0765
  tlast in plasma: 504 h
[1]; EMO7H, 0.75 mg/kg IV daily for 7 days
  Model tmax in plasma: 144 h
[1]; EMO7L, 0.15 mg/kg IV daily for 7 days, individual animals in order B0228, B0407, B0549, B0725, B0733, B0735, B0761
  tlast in plasma: 336 h and 504 h (6×)
[1]; EMO7L, 0.15 mg/kg IV daily for 7 days
  Model tmax in plasma: 144 h
[1]; Ngaoundéré Gudali zebu, plasma, 0.15 mg/kg, EMO7L, 0.15 mg/kg IV daily for 7 days, animals in order B0228, B0407, B0735, B0761
  Tmax: 1440 min
[1]; Ngaoundéré Gudali zebu, plasma, 0.15 mg/kg, EMO7L, 0.15 mg/kg IV daily for 7 days, animals in order B0549, B0725, B0733
  Tmax: 5 min
[1]; Ngaoundéré Gudali, plasma, 0.75 mg/kg, EMO7H, 0.75 mg/kg IV daily for 7 days, animals in order B0434, B0695, B0734
  Tmax: 5 min
[1]; plasma, derived from observed data and aggregated through the PK model, all dose groups
  Terminal half-life: approximately 106 h
[2]
  no-observed-adverse-effect level: 4 to 5 mg/kg

## NCCS[As](SCCN)c1ccc(Nc2nc(N)nc(N)n2)cc1 [melarsomine]
[3]
  Fraction of normal adult male worm motility: 0%
[4]
  Mf density over time: complete clearance after one year
[5]; by day 90, all nodules
  Female worm motility: reduced to zero
[5]; day 90, n = 7
  Fraction of normal adult female worm motility: 0%
[5]; day 185, n = 7
  Fraction of normal adult female worm motility: 0%
[5]; day 275, n = 7
  Fraction of normal adult female worm motility: 0%
[5]; day 360, n = 2
  Fraction of normal adult female worm motility: 0%
[5]; day 550, n = 2
  Fraction of normal adult female worm motility: 0%
